Test results as given in ChEMBL document CHEMBL4038342, “Hydrophilic, Potent, and Selective 7-Substituted 2-Aminoquinolines as Improved Human Neuronal Nitric Oxide Synthase Inhibitors” (J Med Chem, 2017).

Legend:
Nitric oxide synthase 3 = target: T1, Nitric oxide synthase 3 (Bos taurus, UniProt P29473); assay: Inhibition of recombinant bovine eNOS expressed in Escherichia coli using L-arginine as substrate after 30 secs by hemoglobin capture assay
T1 sequence (P29473 whole entry): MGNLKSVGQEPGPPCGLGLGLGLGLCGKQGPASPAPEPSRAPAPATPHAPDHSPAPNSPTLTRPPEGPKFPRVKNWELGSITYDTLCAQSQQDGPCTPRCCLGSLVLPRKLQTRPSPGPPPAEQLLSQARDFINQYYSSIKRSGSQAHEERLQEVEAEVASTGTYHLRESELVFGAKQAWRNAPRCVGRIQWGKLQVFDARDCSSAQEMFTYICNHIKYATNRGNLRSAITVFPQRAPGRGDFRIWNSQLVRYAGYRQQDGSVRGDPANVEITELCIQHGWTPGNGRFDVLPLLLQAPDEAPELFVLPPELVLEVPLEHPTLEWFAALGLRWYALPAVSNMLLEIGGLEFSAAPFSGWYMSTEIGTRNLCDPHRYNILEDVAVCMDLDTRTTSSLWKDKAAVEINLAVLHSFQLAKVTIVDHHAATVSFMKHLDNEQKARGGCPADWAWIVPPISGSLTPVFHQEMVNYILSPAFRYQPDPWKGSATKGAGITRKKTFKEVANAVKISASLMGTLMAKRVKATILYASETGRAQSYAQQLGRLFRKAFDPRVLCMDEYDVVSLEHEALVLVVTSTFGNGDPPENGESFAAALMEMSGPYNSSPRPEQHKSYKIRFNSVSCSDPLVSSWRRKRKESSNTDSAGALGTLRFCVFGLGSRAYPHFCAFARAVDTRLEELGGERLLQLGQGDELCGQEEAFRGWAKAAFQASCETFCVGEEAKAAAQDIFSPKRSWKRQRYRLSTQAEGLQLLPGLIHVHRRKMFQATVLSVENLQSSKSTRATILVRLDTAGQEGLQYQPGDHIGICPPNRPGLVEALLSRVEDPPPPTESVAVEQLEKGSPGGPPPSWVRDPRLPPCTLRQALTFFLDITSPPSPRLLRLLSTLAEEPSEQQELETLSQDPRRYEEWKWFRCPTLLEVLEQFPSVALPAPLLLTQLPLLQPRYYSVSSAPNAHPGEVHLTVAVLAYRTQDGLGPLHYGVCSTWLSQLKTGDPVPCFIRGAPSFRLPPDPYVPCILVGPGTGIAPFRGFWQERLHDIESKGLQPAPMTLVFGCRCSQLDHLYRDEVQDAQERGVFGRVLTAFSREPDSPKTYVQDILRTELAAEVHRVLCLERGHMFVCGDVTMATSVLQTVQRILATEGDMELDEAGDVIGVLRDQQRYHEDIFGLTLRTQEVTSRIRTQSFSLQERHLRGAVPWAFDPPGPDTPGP

Nitric oxide synthase 1 [1] = target: Nitric oxide synthase 1 (Rattus norvegicus, UniProt P29476)
Sequence of Nitric oxide synthase 1 (Rattus norvegicus, UniProt P29476) (P29476 whole entry): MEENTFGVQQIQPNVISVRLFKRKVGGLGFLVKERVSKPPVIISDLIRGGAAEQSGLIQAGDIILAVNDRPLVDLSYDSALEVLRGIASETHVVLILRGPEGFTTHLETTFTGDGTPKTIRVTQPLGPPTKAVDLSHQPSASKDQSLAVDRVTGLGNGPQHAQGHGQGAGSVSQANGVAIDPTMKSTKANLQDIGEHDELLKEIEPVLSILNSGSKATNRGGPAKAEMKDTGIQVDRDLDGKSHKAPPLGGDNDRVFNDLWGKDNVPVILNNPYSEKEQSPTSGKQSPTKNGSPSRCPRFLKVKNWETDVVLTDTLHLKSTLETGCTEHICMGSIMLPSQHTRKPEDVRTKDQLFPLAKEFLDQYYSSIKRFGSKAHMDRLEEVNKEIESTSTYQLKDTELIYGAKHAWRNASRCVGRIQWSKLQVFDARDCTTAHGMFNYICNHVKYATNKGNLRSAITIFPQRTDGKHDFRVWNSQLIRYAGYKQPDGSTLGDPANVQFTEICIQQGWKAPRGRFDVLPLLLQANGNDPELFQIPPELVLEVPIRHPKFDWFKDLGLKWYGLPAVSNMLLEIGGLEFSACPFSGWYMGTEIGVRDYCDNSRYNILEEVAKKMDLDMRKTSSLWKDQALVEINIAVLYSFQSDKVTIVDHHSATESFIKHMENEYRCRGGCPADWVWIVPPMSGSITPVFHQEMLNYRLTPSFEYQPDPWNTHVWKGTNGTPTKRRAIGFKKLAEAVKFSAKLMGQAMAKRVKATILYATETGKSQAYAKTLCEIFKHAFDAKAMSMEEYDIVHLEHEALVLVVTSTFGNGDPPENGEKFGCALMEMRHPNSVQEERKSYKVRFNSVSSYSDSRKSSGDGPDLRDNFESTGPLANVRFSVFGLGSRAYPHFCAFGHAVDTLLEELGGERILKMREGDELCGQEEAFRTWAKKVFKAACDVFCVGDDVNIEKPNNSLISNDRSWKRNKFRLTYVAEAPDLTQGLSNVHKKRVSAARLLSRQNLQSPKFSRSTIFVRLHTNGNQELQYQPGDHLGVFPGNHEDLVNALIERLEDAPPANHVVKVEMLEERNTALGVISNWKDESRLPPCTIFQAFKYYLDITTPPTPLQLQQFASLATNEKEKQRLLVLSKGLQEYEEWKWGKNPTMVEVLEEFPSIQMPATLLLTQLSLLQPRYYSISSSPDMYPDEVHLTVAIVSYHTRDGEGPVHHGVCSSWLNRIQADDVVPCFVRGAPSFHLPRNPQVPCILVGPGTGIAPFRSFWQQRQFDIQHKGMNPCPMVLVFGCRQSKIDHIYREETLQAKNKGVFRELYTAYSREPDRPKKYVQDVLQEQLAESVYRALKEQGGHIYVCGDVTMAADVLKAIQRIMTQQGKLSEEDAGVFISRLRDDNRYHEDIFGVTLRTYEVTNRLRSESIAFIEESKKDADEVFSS

Nitric oxide synthase 1 [2] = target: Nitric oxide synthase 1 (Homo sapiens, UniProt P29475)
Sequence of Nitric oxide synthase 1 (Homo sapiens, UniProt P29475) (P29475 whole entry): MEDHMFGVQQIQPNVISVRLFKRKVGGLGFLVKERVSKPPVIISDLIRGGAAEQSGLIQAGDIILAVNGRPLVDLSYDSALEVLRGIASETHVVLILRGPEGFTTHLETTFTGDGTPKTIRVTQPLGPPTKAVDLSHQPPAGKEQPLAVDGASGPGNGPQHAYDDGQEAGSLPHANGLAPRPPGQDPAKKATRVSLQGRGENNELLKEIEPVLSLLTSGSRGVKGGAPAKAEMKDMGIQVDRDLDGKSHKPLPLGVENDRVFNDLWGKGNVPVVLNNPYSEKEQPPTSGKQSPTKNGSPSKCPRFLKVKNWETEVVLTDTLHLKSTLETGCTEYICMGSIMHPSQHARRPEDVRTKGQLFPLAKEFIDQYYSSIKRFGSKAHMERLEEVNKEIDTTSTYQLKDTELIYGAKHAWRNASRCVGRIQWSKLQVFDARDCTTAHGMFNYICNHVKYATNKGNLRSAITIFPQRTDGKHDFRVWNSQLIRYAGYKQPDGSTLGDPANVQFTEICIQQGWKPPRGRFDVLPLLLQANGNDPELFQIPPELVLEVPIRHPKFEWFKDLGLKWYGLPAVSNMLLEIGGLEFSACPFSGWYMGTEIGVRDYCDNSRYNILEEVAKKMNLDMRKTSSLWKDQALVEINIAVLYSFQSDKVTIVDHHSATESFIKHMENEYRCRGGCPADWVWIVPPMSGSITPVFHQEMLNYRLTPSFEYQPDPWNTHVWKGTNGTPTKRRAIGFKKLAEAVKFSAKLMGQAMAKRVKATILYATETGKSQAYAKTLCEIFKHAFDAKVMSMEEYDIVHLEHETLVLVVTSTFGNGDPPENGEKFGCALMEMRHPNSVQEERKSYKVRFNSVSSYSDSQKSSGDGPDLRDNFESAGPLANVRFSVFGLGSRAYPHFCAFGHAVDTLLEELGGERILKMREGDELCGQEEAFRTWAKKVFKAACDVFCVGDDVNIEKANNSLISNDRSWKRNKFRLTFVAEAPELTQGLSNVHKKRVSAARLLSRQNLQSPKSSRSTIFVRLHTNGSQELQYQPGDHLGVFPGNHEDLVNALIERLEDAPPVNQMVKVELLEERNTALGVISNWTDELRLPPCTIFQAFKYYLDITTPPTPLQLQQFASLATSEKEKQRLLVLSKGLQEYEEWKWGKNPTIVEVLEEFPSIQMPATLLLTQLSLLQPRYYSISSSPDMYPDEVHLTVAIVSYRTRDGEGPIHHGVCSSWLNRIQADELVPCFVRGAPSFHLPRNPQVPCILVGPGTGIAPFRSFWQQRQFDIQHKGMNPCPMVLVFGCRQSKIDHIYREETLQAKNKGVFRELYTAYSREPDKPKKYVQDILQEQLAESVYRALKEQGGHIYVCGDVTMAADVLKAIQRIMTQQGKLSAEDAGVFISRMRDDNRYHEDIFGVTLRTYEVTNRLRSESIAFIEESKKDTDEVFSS

[3] = target: T2, Nitric oxide synthase, inducible (Mus musculus, UniProt P29477); assay: Inhibition of recombinant mouse macrophage iNOS expressed in Escherichia coli using L-arginine as substrate after 30 secs by hemoglobin capture assay
T2 sequence (P29477 whole entry): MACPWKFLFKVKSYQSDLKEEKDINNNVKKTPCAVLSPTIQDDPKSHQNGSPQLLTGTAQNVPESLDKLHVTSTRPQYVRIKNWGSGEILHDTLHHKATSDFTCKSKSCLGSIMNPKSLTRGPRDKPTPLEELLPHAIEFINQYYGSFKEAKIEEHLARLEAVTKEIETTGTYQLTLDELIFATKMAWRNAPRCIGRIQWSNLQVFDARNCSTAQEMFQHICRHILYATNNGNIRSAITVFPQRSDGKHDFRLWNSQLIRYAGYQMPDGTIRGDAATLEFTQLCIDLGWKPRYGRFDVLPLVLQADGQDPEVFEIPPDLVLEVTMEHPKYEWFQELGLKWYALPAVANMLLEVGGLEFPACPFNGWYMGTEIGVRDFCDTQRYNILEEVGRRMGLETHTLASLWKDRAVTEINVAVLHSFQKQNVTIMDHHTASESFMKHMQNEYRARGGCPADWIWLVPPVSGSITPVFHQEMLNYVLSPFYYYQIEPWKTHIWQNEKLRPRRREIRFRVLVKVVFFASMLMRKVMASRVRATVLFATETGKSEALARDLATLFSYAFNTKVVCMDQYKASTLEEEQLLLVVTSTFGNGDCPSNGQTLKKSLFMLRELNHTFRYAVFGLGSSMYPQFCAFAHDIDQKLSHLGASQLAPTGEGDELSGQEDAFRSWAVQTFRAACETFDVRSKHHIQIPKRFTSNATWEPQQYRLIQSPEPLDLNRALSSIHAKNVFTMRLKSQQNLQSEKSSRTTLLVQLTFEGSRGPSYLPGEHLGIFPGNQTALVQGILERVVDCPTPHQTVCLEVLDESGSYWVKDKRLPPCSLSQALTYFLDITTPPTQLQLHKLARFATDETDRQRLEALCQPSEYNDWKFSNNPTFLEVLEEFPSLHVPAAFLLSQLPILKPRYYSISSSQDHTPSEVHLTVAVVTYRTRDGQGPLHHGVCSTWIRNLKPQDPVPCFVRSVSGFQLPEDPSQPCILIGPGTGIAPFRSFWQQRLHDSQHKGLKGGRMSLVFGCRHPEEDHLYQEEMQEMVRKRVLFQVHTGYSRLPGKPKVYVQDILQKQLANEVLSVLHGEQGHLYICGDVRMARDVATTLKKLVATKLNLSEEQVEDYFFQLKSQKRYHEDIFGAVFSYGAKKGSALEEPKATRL

[4] = Permeability from basolateral to apical side in human Caco2 cells assessed as drug recovery at 10 uM after 2 hrs by LC/MS/MS analysis; format: ADME, cell-based; conditions: caco-2, 2 h
[5] = Permeability from apical to basolateral side in human Caco2 cells assessed as drug recovery at 10 uM after 2 hrs by LC/MS/MS analysis; format: ADME, cell-based; conditions: caco-2, 2 h

Row | Drug recovery [4] | Drug recovery [5] | SMILES | Ki (Nitric oxide synthase 3) | Ki (Nitric oxide synthase 1 [1]) | Ki (Nitric oxide synthase 1 [2]) | Ki [3]
1 |  |  | Nc1ccc2ccc(CNCCCc3cccnc3)cc2n1 | 1.04 µM | 0.038 µM | 0.108 µM | 
2 |  |  | CN(C)c1ccc(CNCc2ccc3ccc(N)nc3c2)cc1 | 8.42 µM | 0.522 µM |  | 42.2 µM
3 | 83% | 58.5% | Cc1cc(CCNCc2ccc3c(C)cc(N)nc3c2)ccc1C#N |  |  |  | 
4 |  |  | Cc1ccncc1CCCNCc1ccc2ccc(N)nc2c1 | 0.562 µM |  | 0.13 µM | 13.8 µM
5 |  |  | CN(C)c1cccc(CNCc2ccc3ccc(N)nc3c2)c1 | 6.53 µM | 0.421 µM | 1.02 µM | 30.1 µM
6 |  |  | COc1ccncc1CCCNCc1ccc2ccc(N)nc2c1 |  |  |  | 17.2 µM
